Patent US20210269434A1, “TRICYCLIC COMPOUNDS AS INHIBITORS OF KRAS” (Incyte Corporation, priority 2020, published 2021)

Assays:
KRAS G12C = KRAS G12C (Homo sapiens, UniProt P01116, G12C); assay: GDP-GTP exchange assay (KRAS_G12C exchange); assay type: biochemical; conditions: bodipy-GDP loaded KRAS G12C 2.5 nM, SOS1 150 nM, GppNHp; 2 hours pre-incubation, 2 hours reaction; read-out: G12C_exchange
Method in brief: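 Fluorescence exchange of bodipy-GDP for GppNHp, SOS1-driven, read at 485/520 nm; IC50 from four-parameter variable-slope fit. Both mutants used 2.5 nM final labelled protein and a 2 h compound pre-incubation. G12C reaction had 500 uM GppNHp and 150 nM SOS1 for 2 h; G12D ran 4 h.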

[1] = tested on: MIA PaCa-2 (KRAS G12C) cells; assay: Cellular pERK HTRF assay (KRAS_G12C pERK); assay type: cell-based, human; conditions: Homo sapiens, MIA PaCa-2, 4 hours incubation, read-out: G12C_pERK
Method in brief: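 Phospho-ERK1/2 HTRF readout (665 and 620 nm) in lysed MIA PaCa-2 cells, antibodies incubated overnight at room temperature. Cells seeded the day before and treated with G12C compounds for 4 h at 37 °C; IC50 fitted to percent inhibition against log inhibitor concentration.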

Sequence of KRAS G12C (P01116 1-188 isoform P01116-2 G12C): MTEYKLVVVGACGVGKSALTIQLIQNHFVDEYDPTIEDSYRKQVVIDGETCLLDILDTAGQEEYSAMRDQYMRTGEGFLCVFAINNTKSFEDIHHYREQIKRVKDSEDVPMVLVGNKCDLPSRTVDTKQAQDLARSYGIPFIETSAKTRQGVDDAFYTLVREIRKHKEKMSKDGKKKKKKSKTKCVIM

Row | IC50 (KRAS G12C) [nM] | IC50 [1] [nM] | Compound
1 | ≤ 100 | ≤ 100 | CC#CC(=O)N1CC[C@H](n2nnc3c(OC[C@@H]4CCCN4C)nc4c(F)c(-c5cccc(C)c5Cl)c(C)cc4c32)C[C@H]1CC#N [Example 254, 2-((2S,4S)-1-(but-2-ynoyl)-4-(7-(2-chloro-3-methylphenyl)-6-fluoro-8-methyl-4-(((S)-1-methylpyrrolidin-2-yl)methoxy)-1H-[1,2,3]triazolo[4,5-c]quinolin-1-yl)piperidin-2-yl)acetonitrile]
2 | ≤ 100 | ≤ 100 | CC#CC(=O)N1CC[C@H](n2nnc3c(N4CC(N(C)C)C4)nc4c(F)c(-c5c(C)c(Cl)cc6[nH]ncc56)c(CCC#N)cc4c32)C[C@H]1CC#N (single isomer, unassigned) [Example 231a]
3 | ≤ 100 | ≤ 100 | CC#CC(=O)N1CCC(n2cnc3c(N4CC(N(C)CC)C4)nc4c(F)c(-c5cccc6cccc(Cl)c56)c(C)cc4c32)C[C@H]1CC#N (single isomer, unassigned) [Example 224a]
4 | ≤ 100 | ≤ 100 | C=CC(=O)N1CC[C@H](n2nnc3c(N4CC(N(C)C)C4)nc4c(F)c(-c5cccc(C)c5Cl)c(C)cc4c32)C[C@H]1CC#N [Example 247, 2-((2S,4S)-1-acryloyl-4-(7-(2-chloro-3-methylphenyl)-4-(3-(dimethylamino)azetidin-1-yl)-6-fluoro-8-methyl-1H-[1,2,3]triazolo[4,5-c]quinolin-1-yl)piperidin-2-yl)acetonitrile]
5 | ≤ 100 | ≤ 100 | C=CC(=O)N1CC[C@H](n2nnc3c(OC[C@@H]4CCCN4C)nc4c(F)c(-c5cccc(Cl)c5C)c(C)cc4c32)C[C@H]1CC#N [Example 98, 2-((2S,4S)-1-acryloyl-4-(7-(3-chloro-2-methylphenyl)-6-fluoro-8-methyl-4-(((S)-1-methylpyrrolidin-2-yl)methoxy)-1H-[1,2,3]triazolo[4,5-c]quinolin-1-yl)piperidin-2-yl)acetonitrile]
6 | ≤ 100 | ≤ 100 | C=CC(=O)N1CC[C@H](n2nnc3c(OC[C@@H]4CCCN4C)nc4c(F)c(-c5ccc(F)cc5)c(C)cc4c32)C[C@H]1CC#N [Example 135, 2-((2S,4S)-1-acryloyl-4-(6-fluoro-7-(4-fluorophenyl)-8-methyl-4-(((S)-1-methylpyrrolidin-2-yl)methoxy)-1H-[1,2,3]triazolo[4,5-c]quinolin-1-yl)piperidin-2-yl)acetonitrile]
7 | ≤ 100 | ≤ 100 | COc1c(Cl)cccc1-c1c(C(F)(F)F)cc2c(nc(N3CC(C)(N(C)C)C3)c3nnn([C@H]4CCN(C(=O)/C=C/CN(C)C)[C@H](CC#N)C4)c32)c1F [Example 244, 2-((2S,4S)-4-(7-(3-chloro-2-methoxyphenyl)-4-(3-(dimethylamino)-3-methylazetidin-1-yl)-6-fluoro-8-(trifluoromethyl)-1H-[1,2,3]triazolo[4,5-c]quinolin-1-yl)-1-((E)-4-(dimethylamino)but-2-enoyl)piperidin-2-yl)acetonitrile]
8 | ≤ 100 | ≤ 100 | C=CC(=O)N1CC[C@H](n2cnc3c(N4CC(N(C)C)C4)nc4c(F)c(-c5ccc(F)c6cccnc56)c(Cl)cc4c32)C[C@H]1CC#N (single isomer, unassigned) [Example 64a]
9 | ≤ 100 | ≤ 100 | C=CC(=O)N1CC[C@H](n2cnc3c(N4CC(N(C)C)C4)nc4c(F)c(-c5cc(O)ccc5C)c(Cl)cc4c32)C[C@H]1CC#N (single isomer, unassigned) [Example 53a]
10 | ≤ 100 | ≤ 100 | C=CC(=O)N1CCC(n2cnc3c(N4CC(C)(N(C)C)C4)nc4c(F)c(-c5cccc6cccc(Cl)c56)c(Cl)cc4c32)C[C@H]1CC#N (single isomer, unassigned) [Example 212a]
11 | ≤ 100 | ≤ 100 | Cc1cc2c(nc(OC[C@@H]3CCCN3C)c3nnn([C@H]4CCN(C(=O)/C=C/CF)[C@H](CC#N)C4)c32)c(F)c1-c1ccccc1C(F)(F)F (single isomer, unassigned) [Example 159a]
12 | ≤ 100 | ≤ 100 | Cc1nccn1-c1nc2c(F)c(-c3ccc(F)cc3)c(Cl)cc2c2c1ncn2[C@H]1CCN(C(=O)/C=C/CF)[C@H](CC#N)C1 [Example 125, 2-((2S,4S)-4-(8-chloro-6-fluoro-7-(4-fluorophenyl)-4-(2-methyl-1H-imidazol-1-yl)-1H-imidazo[4,5-c]quinolin-1-yl)-1-((E)-4-fluorobut-2-enoyl)piperidin-2-yl)acetonitrile]
13 | ≤ 100 | ≤ 100 | C=CC(=O)N1CC[C@H](n2nnc3c(OC[C@@H]4CCCN4C)nc4c(F)c(-c5ccc(F)c(Cl)c5)c(Cl)cc4c32)C[C@H]1CC#N [Example 85, 2-((2S,4S)-1-acryloyl-4-(8-chloro-7-(3-chloro-4-fluorophenyl)-6-fluoro-4-(((S)-1-methylpyrrolidin-2-yl)methoxy)-1H-[1,2,3]triazolo[4,5-c]quinolin-1-yl)piperidin-2-yl)acetonitrile]
14 | ≤ 100 | ≤ 100 | C=CC(=O)N1CCC(n2cnc3c(OC[C@@H]4CCCN4C)nc4c(F)c(-c5c(C)ccc6[nH]ncc56)c(Cl)cc4c32)CC1CC#N (single isomer, unassigned) [Example 37a]
15 | ≤ 100 | ≤ 100 | C=CC(=O)N1CC[C@H](n2cnc3c(N4CC(N(C)C)C4)nc4c(F)c(-c5cnccc5C)c(Cl)cc4c32)C[C@H]1CC#N [Example 108, 2-((2S,4S)-1-acryloyl-4-(8-chloro-4-(3-(dimethylamino)azetidin-1-yl)-6-fluoro-7-(4-methylpyridin-3-yl)-1H-imidazo[4,5-c]quinolin-1-yl)piperidin-2-yl)acetonitrile]
16 | ≤ 100 | ≤ 100 | COC/C=C/C(=O)N1CC[C@H](n2nnc3c(OC[C@@H]4CCCN4C)nc4c(F)c(-c5cccc(Cl)c5C)c(C)cc4c32)C[C@H]1CC#N [Example 100, 2-((2S,4S)-4-(7-(3-chloro-2-methylphenyl)-6-fluoro-8-methyl-4-(((S)-1-methyl-pyrrolidin-2-yl)methoxy)-1H-[1,2,3]triazolo[4,5-c]quinolin-1-yl)-1-((E)-4-methoxybut-2-enoyl)piperidin-2-yl)acetonitrile]
17 | ≤ 100 | ≤ 100 | Cc1c(C#N)cccc1-c1c(Cl)cc2c(nc(OC[C@@H]3CCCN3C)c3nnn([C@H]4CCN(C(=O)/C=C/CN(C)C)[C@H](CC#N)C4)c32)c1F [Example 97, 3-(8-chloro-1-((2S,4S)-2-(cyanomethyl)-1-((E)-4-(dimethylamino)but-2-enoyl)piperidin-4-yl)-6-fluoro-4-(((S)-1-methylpyrrolidin-2-yl)methoxy)-1H-[1,2,3]triazolo[4,5-c]quinolin-7-yl)-2-methylbenzonitrile]
18 | ≤ 100 | ≤ 100 | Cc1c(Cl)cc2[nH]ncc2c1-c1c(Cl)cc2c(nc(N3CC(N(C)C)C3)c3nnn([C@H]4CCN(C(=O)/C=C/CN(C)C)[C@H](CC#N)C4)c32)c1F [Example 179a, 2-((2S,4S)-4-(8-chloro-7-(6-chloro-5-methyl-1H-indazol-4-yl)-4-(3-(dimethylamino)-azetidin-1-yl)-6-fluoro-1H-[1,2,3]triazolo[4,5-c]quinolin-1-yl)-1-((E)-4-(dimethyl-amino)but-2-enoyl)piperidin-2-yl)acetonitrile]
19 | ≤ 100 | ≤ 100 | CC#CC(=O)N1CC[C@H](n2nnc3c(N4CCOCC4=O)nc4c(F)c(-c5cccc(Cl)c5C)c(Cl)cc4c32)C[C@H]1CC#N [Example 91, 2-((2S,4S)-1-(but-2-ynoyl)-4-(8-chloro-7-(3-chloro-2-methylphenyl)-6-fluoro-4-(3-oxomorpholino)-1H-[1,2,3]triazolo[4,5-c]quinolin-1-yl)piperidin-2-yl)acetonitrile]
20 | ≤ 100 | ≤ 100 | Cc1cccc(-c2c(Cl)cc3c(nc(N4CC(N(C)C)C4)c4ncn([C@H]5CCN(C(=O)/C=C/CN(C)C)[C@H](CC#N)C5)c43)c2F)c1C(F)(F)F [Example 262, 2-((2S,4S)-4-(8-chloro-4-(3-(dimethylamino)azetidin-1-yl)-6-fluoro-7-(3-methyl-2-(trifluoromethyl)phenyl)-1H-imidazo[4,5-c]quinolin-1-yl)-1-((E)-4-(dimethylamino)but-2-enoyl)piperidin-2-yl)acetonitrile]
21 | ≤ 100 | ≤ 100 | Cc1cc2c(nc(-n3ccnc3C)c3nnn([C@H]4CCN(C(=O)/C=C/CN(C)C)[C@H](CC#N)C4)c32)c(F)c1-c1ccccc1C(F)(F)F (single isomer, unassigned) [Example 167a]
22 | ≤ 100 | ≤ 100 | C=CC(=O)N1CC[C@H](n2nnc3c(N4CC(N(C)C)C4)nc4c(F)c(-c5ccccc5C(F)(F)F)c(C)cc4c32)C[C@H]1CC#N (single isomer, unassigned) [Example 165a]
23 | ≤ 100 | ≤ 100 | C=CC(=O)N1CC[C@H](n2cnc3c(N4CC(N(C)C)C4)nc4c(F)c(-c5cncc(C)c5C)c(Cl)cc4c32)C[C@H]1CC#N [Example 110a, 2-((2S,4S)-1-acryloyl-4-(8-chloro-4-(3-(dimethylamino)-azetidin-1-yl)-7-(4,5-dimethylpyridin-3-yl)-6-fluoro-1H-imidazo[4,5-c]quinolin-1-yl)piperidin-2-yl)acetonitrile]
24 | ≤ 100 | ≤ 100 | C=CC(=O)N1CC[C@H](n2cnc3c(N4CC(N(C)C)C4)nc4c(F)c(-c5cccc(Cl)c5C)c(Cl)cc4c32)C[C@H]1CC#N [Example 61, 2-((2S,4S)-1-acryloyl-4-(8-chloro-7-(3-chloro-2-methylphenyl)-4-(3-(dimethyl-amino)azetidin-1-yl)-6-fluoro-1H-imidazo[4,5-c]quinolin-1-yl)piperidin-2-yl)acetonitrile]
